This series is described as follows: solvent given as SMILES.
The mark [1] stands for this setting: in CCCCCCCCC=CCCCCCCCC(=O)OCC(COC(=O)CCCCCCCC=CCCCCCCCC)OC(=O)CCCCCCCC=CCCCCCCCC

The structures appear in SMILES notation.

With `Cc1ccc2cc(C)ccc2c1`, the “solvation free energy, 298 K” value by setting is: under setting [1], -8.29 kcal/mol; (in CCCCCCCO) -8.28 kcal/mol; (in CCCCCCO) -8.36 kcal/mol; (in CCCCCO) -8.49 kcal/mol; (in CCCCO) -8.59 kcal/mol; (in CCO) -8.85 kcal/mol. Further, for the setting “in O”, the “solvation free energy, 298 K” value is -2.37 kcal/mol.
Regarding `C=CCC=C`, the “solvation free energy, 298 K” value was -2.62 kcal/mol (in CN(C)C=O) and 0.94 kcal/mol (in O).
Take `CC(C)=NO`: where the note is “in CCCCCC”, the “solvation free energy, 298 K” value is -3.74 kcal/mol.
Regarding `CNC(=O)Oc1cccc2c1OC(C)(C)C2`, under “in O”, the “solvation free energy, 298 K” value was -9.61 kcal/mol.
Same read-out and setting: then `Clc1cccc(Cl)c1-c1c(Cl)cccc1Cl`, with -2.17 kcal/mol.
Same read-out and setting: then `Nc1ccc(N)c2c1C(=O)c1ccccc1C2=O`, with -11.8 kcal/mol; and `O=c1[nH]cc(I)c(=O)[nH]1`, with -18.7 kcal/mol.
Take `ClCCCCCl`: the “solvation free energy, 298 K” value (in CC(C)=O) is -6.56 kcal/mol and the “solvation free energy, 298 K” value (in O) is -2.32 kcal/mol.
Regarding `CCCc1ccccc1`, the “solvation free energy, 298 K” value (in C1CCOC1) was -6.63 kcal/mol; the “solvation free energy, 298 K” value (in CC#N) is -5.61 kcal/mol; the “solvation free energy, 298 K” value (in CC(C)CC(C)(C)C) is -5.89 kcal/mol; the “solvation free energy, 298 K” value (in CC(C)O) is -5.41 kcal/mol; the “solvation free energy, 298 K” value (in CCCCCC) is -5.55 kcal/mol; the “solvation free energy, 298 K” value (in CCCCCCC) was -5.92 kcal/mol. Further, the “solvation free energy, 298 K” value was -5.23 kcal/mol (in CCCCCCCCCC); -5.76 kcal/mol (in CCCCCCCCCCCCCCCC); -5.58 kcal/mol (in CCCCCCCCO); -5.31 kcal/mol (in CO); -3.49 kcal/mol (in NC=O); -0.56 kcal/mol (in O). Further, the “solvation free energy, 298 K” value was -3.65 kcal/mol (in OCCO), -4.55 kcal/mol (in OCCOCCO) and -4.69 kcal/mol (in OCCOCCOCCO).
`OC1CCCCC1`: the “solvation free energy, 298 K” value is -6.47 kcal/mol (in Brc1ccccc1); -7.24 kcal/mol (in C1CCOC1); -6.37 kcal/mol (in CC#N); -6.94 kcal/mol (in CC(C)=O); -5.02 kcal/mol (in CC(C)CC(C)(C)C); -7.35 kcal/mol (in CC(C)O). Besides, the “solvation free energy, 298 K” value was -4.89 kcal/mol (in CCCCCCCCCCCCCCCC); -7.49 kcal/mol (in CCCCCCCCCCO); -7.02 kcal/mol (in CCCCCCCCO); -7.07 kcal/mol (in CCCCOC(C)=O); -7.69 kcal/mol (in CO); -5.44 kcal/mol (in O). Further, the “solvation free energy, 298 K” value (in [2H]O[2H]) was -5.7 kcal/mol.
`CC(C)C(=O)C(C)C`: the “solvation free energy, 298 K” value (in O) was -2.56 kcal/mol.
With `CC=Cc1ccc(O)c(OC)c1`, for the setting “in O”, the “solvation free energy, 298 K” value was -6.33 kcal/mol.
With `Clc1cc(Cl)cc(Cl)c1`, the “solvation free energy, 298 K” value runs as follows: (in CCCCCC) -6.96 kcal/mol; (in CCCCCCCCO) -6.62 kcal/mol; (in O) -0.78 kcal/mol.
Consider `Cn1ccnc1`, for which the “solvation free energy, 298 K” value (in O) is -8.41 kcal/mol.
For `Nc1ncnc2c1ncn2C1CC(O)C(CO)O1` (stereo unspecified), the “solvation free energy, 298 K” value runs as follows: (in C=CCCCCCCC=C) -16.6 kcal/mol; (in C=CCCCCCCCCCCCCCC) -15.8 kcal/mol; (in O) -24.3 kcal/mol.
For the compound `CCCCCCCCCCCCCCCCCCCCO`, the “solvation free energy, 298 K” value (in CC(C)O) was -16.2 kcal/mol; the “solvation free energy, 298 K” value (in CCCCCCCCCCO) is -16.4 kcal/mol; the “solvation free energy, 298 K” value (in CCCCCCCCO) is -16.4 kcal/mol; the “solvation free energy, 298 K” value (in CCCCCCO) was -16.5 kcal/mol.
Regarding `CCCCCCCCCCCCCCCCCCCCCCCCCCCC`, the “solvation free energy, 298 K” value (in CC(=O)N(C)C) was -18.9 kcal/mol; the “solvation free energy, 298 K” value (in CC(C)(C)O) is -16.9 kcal/mol; the “solvation free energy, 298 K” value (in CCC(C)=O) is -17.1 kcal/mol; the “solvation free energy, 298 K” value (in CCCCCO) is -17 kcal/mol; the “solvation free energy, 298 K” value (in CCCCO) was -16.7 kcal/mol; the “solvation free energy, 298 K” value (in CCCCOC(C)=O) is -17.9 kcal/mol. The “solvation free energy, 298 K” value is -16.4 kcal/mol (in CCCO); -19 kcal/mol (in CN(C)C=O); -19.3 kcal/mol (in Cc1ccc(C)cc1); -19.2 kcal/mol (in Cc1cccc(C)c1); -18.6 kcal/mol (in ClCCl); 5.92 kcal/mol (in O).
For the compound `Clc1ccc(C(c2ccccc2Cl)C(Cl)(Cl)Cl)cc1` (stereo unspecified), the “solvation free energy, 298 K” value runs as follows: under setting [1], -13.8 kcal/mol; (in O) -5.31 kcal/mol.
On to `C=C1C=CC(C(C)C)CCC(C)=CCC1` (stereo unspecified), for which the “solvation free energy, 298 K” value (in O) stood at 0.14 kcal/mol.
`CC=CCCC`: the “solvation free energy, 298 K” value runs as follows: (in NC=O) -1.06 kcal/mol; (in OCCO) -1.25 kcal/mol; (in OCCOCCO) -1.92 kcal/mol; (in OCCOCCOCCO) -2.02 kcal/mol.
`Cc1cccc(C(=O)O)c1`: the “solvation free energy, 298 K” value was -10.5 kcal/mol (in C1CCOC1); -10.1 kcal/mol (in C1COCCO1); -10.2 kcal/mol (in CC(C)(C)O); -10 kcal/mol (in CC(C)CC(C)O); -9.93 kcal/mol (in CC(C)CCO); -9.91 kcal/mol (in CC(C)CO). The “solvation free energy, 298 K” value (in CC(C)O) is -10.1 kcal/mol; the “solvation free energy, 298 K” value (in CC(C)OCCO) was -10.1 kcal/mol; the “solvation free energy, 298 K” value (in CC(O)COC(C)(C)C) was -9.97 kcal/mol; the “solvation free energy, 298 K” value (in CCC(C)CO) is -9.88 kcal/mol; the “solvation free energy, 298 K” value (in CCC(C)O) is -10.1 kcal/mol; the “solvation free energy, 298 K” value (in CCCC(C)CO) is -9.89 kcal/mol. Also, the “solvation free energy, 298 K” value is -10 kcal/mol (in CCCC(C)O); -9.65 kcal/mol (in CCCCCCCCCCO); -9.87 kcal/mol (in CCCCCCCCO); -9.91 kcal/mol (in CCCCCCCO); -9.94 kcal/mol (in CCCCCCO); -9.99 kcal/mol (in CCCCCO). The “solvation free energy, 298 K” value (in CCCCO) was -10 kcal/mol; the “solvation free energy, 298 K” value (in CCCCOC(C)=O) was -9.69 kcal/mol; the “solvation free energy, 298 K” value (in CCCCOCCO) is -10 kcal/mol; the “solvation free energy, 298 K” value (in CCCO) is -10.3 kcal/mol; the “solvation free energy, 298 K” value (in CCCOCCO) was -10.1 kcal/mol; the “solvation free energy, 298 K” value (in CCO) is -10.2 kcal/mol. Further, the “solvation free energy, 298 K” value reads like this: (in CCOC(C)=O) -9.9 kcal/mol; (in CCOCC) -10 kcal/mol; (in CCOCCO) -10.1 kcal/mol; (in CO) -10.3 kcal/mol; (in COC(C)=O) -9.99 kcal/mol; (in COC(C)CCO) -10.1 kcal/mol. In addition, the “solvation free energy, 298 K” value (in O) was -6.79 kcal/mol.
As to `Cc1c(C(=O)O)cc([N+](=O)[O-])cc1[N+](=O)[O-]`, the “solvation free energy, 298 K” value (in C1CCOC1) is -17.5 kcal/mol; the “solvation free energy, 298 K” value (in C1COCCO1) was -17.5 kcal/mol; the “solvation free energy, 298 K” value (in CC(C)(C)O) was -16 kcal/mol; the “solvation free energy, 298 K” value (in CC(C)CCO) is -15.8 kcal/mol; the “solvation free energy, 298 K” value (in CC(C)CO) is -15.7 kcal/mol; the “solvation free energy, 298 K” value (in CC(C)O) was -16.2 kcal/mol. Besides, the “solvation free energy, 298 K” value is -16.1 kcal/mol (in CCC(C)O); -15.9 kcal/mol (in CCCC(C)O); -15.3 kcal/mol (in CCCCCCCCCCO); -15.6 kcal/mol (in CCCCCCCCO); -15.9 kcal/mol (in CCCCCCCO); -15.8 kcal/mol (in CCCCCCO). The “solvation free energy, 298 K” value is, setting by setting: (in CCCCCO) -16 kcal/mol; (in CCCCO) -16.1 kcal/mol; (in CCCCOC(C)=O) -16.2 kcal/mol; (in CCCO) -16.2 kcal/mol; (in CCOC(C)=O) -16.4 kcal/mol; (in COC(C)=O) -16.7 kcal/mol. For the setting “in O”, the “solvation free energy, 298 K” value was -13.6 kcal/mol.
On to `O=Cc1cccc(O)c1`, for which, where the note is “in O”, the “solvation free energy, 298 K” value is -9.52 kcal/mol.
The same measure, in the same setting: then `O=C(O)C=Cc1ccccc1`, with -8.38 kcal/mol.
As for `CCCCCCCCCCCCCCCCO`, the “solvation free energy, 298 K” value (in CC(C)O) is -13.7 kcal/mol; the “solvation free energy, 298 K” value (in CCC(C)=O) was -13.8 kcal/mol; the “solvation free energy, 298 K” value under setting [1] was -11.6 kcal/mol; the “solvation free energy, 298 K” value (in CCCCCCCCCCO) was -13.4 kcal/mol; the “solvation free energy, 298 K” value (in CCCCCCCCO) was -13.5 kcal/mol; the “solvation free energy, 298 K” value (in CCCCCCO) was -13.6 kcal/mol. Besides, the “solvation free energy, 298 K” value (in CCCCOCCCC) is -13.1 kcal/mol; the “solvation free energy, 298 K” value (in CCOCC) is -13.5 kcal/mol; the “solvation free energy, 298 K” value (in O) was -2.76 kcal/mol.
With `CCC(O)C(C)(C)C` (stereo unspecified), the “solvation free energy, 298 K” value is, setting by setting: (in CCCCCCCC) -4.93 kcal/mol; (in CCCCCCCCCC) -4.85 kcal/mol.
`CC(=O)C1CCCCC1`: for the setting “in O”, the “solvation free energy, 298 K” value was -3.9 kcal/mol.
`C=Cc1ccccc1`: the “solvation free energy, 298 K” value (in O) was -1.27 kcal/mol.
Still for that read-out and setting: the same measure for `CCCCOCCO`: -6.25 kcal/mol.
`Cc1cccnc1`: the “solvation free energy, 298 K” value runs as follows: (in CC(C)(C)O) -5.83 kcal/mol; (in CC(C)CC(C)(C)C) -4.97 kcal/mol; (in CCCCO) -6.41 kcal/mol; (in CCCO) -6.34 kcal/mol; (in O) -4.8 kcal/mol.
Consider `c1ccc2c(c1)OCCOCCOCCOc1ccccc1OCCOCCOCCO2`, for which the “solvation free energy, 298 K” value by setting is: (in Cc1cccc(C)c1) -27.3 kcal/mol; (in O) -23.6 kcal/mol.
Regarding `C1CNCCN1`, where the note is “in O”, the “solvation free energy, 298 K” value is -7.4 kcal/mol.
Turning to `COC(=O)c1ccccc1O`, where the note is “in Cc1ccc(C)cc1”, the “solvation free energy, 298 K” value was -7.64 kcal/mol.
Turning to `OC1CCCCCCCCCCC1`, the “solvation free energy, 298 K” value (in O) was -5.35 kcal/mol.
Turning to `NC(N)=S`, the “solvation free energy, 298 K” value is -9.57 kcal/mol (in CCCCCCO); -9.72 kcal/mol (in CCCCCO); -9.97 kcal/mol (in CCCCO); -10.2 kcal/mol (in CCCO); -10.6 kcal/mol (in CCO).
On to `O=Cc1ccc(C(=O)O)cc1`, for which the “solvation free energy, 298 K” value was -12.8 kcal/mol (in CN1CCCC1=O) and -8.94 kcal/mol (in O).
Turning to `O=C1CCCC1`, the “solvation free energy, 298 K” value is, setting by setting: (in CCCCCCC) -4.53 kcal/mol; (in CCCCCCCCCCCCCCCC) -4.22 kcal/mol; (in CCCCCCCCO) -5.02 kcal/mol; (in CCCCCl) -5.46 kcal/mol; (in CCCCOCCCC) -4.82 kcal/mol; (in ClC(Cl)(Cl)Cl) -5.54 kcal/mol. The “solvation free energy, 298 K” value is, setting by setting: (in ClCCCl) -6.26 kcal/mol; (in O) -4.72 kcal/mol; (in [2H]O[2H]) -4.75 kcal/mol.
As for `CC(CC(C)(C)C)CC(C)(C)CC(C)(C)C` (stereo unspecified), the “solvation free energy, 298 K” value (in O) was 4.46 kcal/mol.
Regarding `Oc1c(Cl)c(Cl)c(Cl)c(Cl)c1Cl`, the “solvation free energy, 298 K” value is, setting by setting: under setting [1], -10.3 kcal/mol; (in O) -4.99 kcal/mol.

Values taken from the CombiSolv-Exp solvation set (Vermeire and Green 2021).
